Tests used:
[1] = tested on: ML-1; test: Cancer cell line profiling, Genomics of Drug Sensitivity Project; conditions: ML1, read-out: CD532 EC50 (uM)
[2] = tested on: B-CPAP; test: as above; conditions: Homo sapiens, BCPAP, read-out: CD532 EC50 (uM)
[3] = tested on: DJM-1; test: as above; conditions: read-out: CD532 EC50 (uM)
[4] = tested on: Hs, 766T; test: as above; conditions: Hs766T, read-out: CD532 EC50 (uM)
[5] = tested on: IPC-298; test: as above; conditions: Homo sapiens, IPC-298, read-out: CD532 EC50 (uM)
[6] = tested on: MYCN; test: Screen of Kelly MYCN-amplified cells, western blot for MYCN; assay type: cell-based; conditions: 1 μM, 24 hrs
Experimental: (§1) Neuroblastoma tumor cell lines were obtained from the University of California San Francisco Cell Culture Facility (Kelly, SK-N-BE2, and SH-EP). SMS-KCN, SHEP MYCN^wt and MYCN^T58A/S62A cells were obtained. All cells were grown in RPMI with 10% FBS. Neuroblastoma cells were harvested and lysed with Cell Signaling Lysis buffer+1% SDS, sonicated and supernatants boiled in LDS sample buffer (Invitrogen). Western blots were performed as described previously (Chanthery et al., 2012), with primary antibodies to MYCN (ab24193, Abcam), Histone H3, P-Histone H3 (S10), Aurora A (Cell signaling), and GAPDH (Millipore). Western blot quantitation performed with ImageJ software.
To test whether this panel of 32 putative conformation-disrupting Aurora A inhibitors would destabilize MYCN, initially Kelly MYCN-amplified neuroblastoma cells were treated with candidate inhibitors and MYCN protein was measured by western blot. Phosphorylation of Histone H3, a known substrate for Aurora A and B and a marker for mitosis, was also assessed. FIGS. 1B and 5 show decreased levels of both MYCN protein and p-Histone H3 in response to several members of the screening panel (quantitated in FIG. 1).

[7] = tested on: SAS; test: Cancer cell line profiling, Genomics of Drug Sensitivity Project; conditions: read-out: CD532 EC50 (uM)
[8] = tested on: LB771-HNC; test: as above; conditions: read-out: CD532 EC50 (uM)
[9] = tested on: P-Histone H3 (S10); test: Dose response immunoblot for phosphorylation of Histone H3 (S10) in MYCN-amplified neuroblastoma cell lines; assay type: cell-based; conditions: FIGS. 1D and 7
Experimental: as §1

[10] = tested on: OSC-19; test: Cancer cell line profiling, Genomics of Drug Sensitivity Project; conditions: OSC19, read-out: CD532 EC50 (uM)
[11] = tested on: HMVII; test: as above; conditions: read-out: CD532 EC50 (uM)
[12] = tested on: OVKATE; test: as above; conditions: read-out: CD532 EC50 (uM)
[13] = tested on: YAPC; test: as above; conditions: Homo sapiens, read-out: CD532 EC50 (uM)
[14] = tested on: HTC-C3; test: as above; conditions: Homo sapiens, HTC-C3, read-out: CD532 EC50 (uM)
[15] = tested on: MYCN-MAX; test: Immunoprecipitation of MYCN and immunoblot for MAX; assay type: cell-based; conditions: SK-N-BE(2) cells, 2 hrs
Experimental: Pulldowns were performed with anti-N-Myc antibody (Santa Cruz, SC-53993) and Protein G sepharose beads (Sigma-Aldrich, P3296). Immunoblots were performed as described above.

[16] = tested on: MEL-HO; test: Cancer cell line profiling, Genomics of Drug Sensitivity Project; conditions: read-out: CD532 EC50 (uM)
[17] = tested on: HSC-39; test: as above; conditions: read-out: CD532 EC50 (uM)
[18] = tested on: KLE; test: as above; conditions: Homo sapiens, read-out: CD532 EC50 (uM)
[19] = tested on: SNU-5; test: as above; conditions: Homo sapiens, SNU-5, read-out: CD532 EC50 (uM)
[20] = tested on: MYCN-expressing, SHH-subtype medulloblastoma allograft; test: Medulloblastoma allograft in mice; assay type: in vivo
Experimental: Mice were injected intraperitoneally as described. For determining tumor volume, for example in medulloblastoma model mice, mice were euthanized once maximum tumor length exceeded 2.0 cm, per IACUC protocol (IACUC, Institutional Animal Care and Use Committee).

[21] = tested on: FU97; test: Cancer cell line profiling, Genomics of Drug Sensitivity Project; conditions: Fu97, read-out: CD532 EC50 (uM)
[22] = tested on: SNU-1; test: as above; conditions: Homo sapiens, SNU1, read-out: CD532 EC50 (uM)
[23] = tested on: NB13; test: as above; conditions: read-out: CD532 EC50 (uM)
[24] = tested on: CP50-MEL-B; test: as above; conditions: read-out: CD532 EC50 (uM)
[25] = tested on: 8505C; test: as above; conditions: Homo sapiens, read-out: CD532 EC50 (uM)
[26] = tested on: BFTC-909; test: as above; conditions: Homo sapiens, BFTC-909, read-out: CD532 EC50 (uM)
[27] = tested on: HGC-27; test: as above; conditions: Homo sapiens, HGC-27, read-out: CD532 EC50 (uM)
[28] = tested on: LB831-BLC; test: as above; conditions: read-out: CD532 EC50 (uM)

O=C(Nc1ccc(Nc2nccc(Nc3cc(C4CCCC4)[nH]n3)n2)cc1)Nc1cccc(C(F)(F)F)c1 [CD532, 1-(4-((4-((5-cyclopentyl-1H-pyrazol-3-yl)amino)pyrimidin-2-yl)amino)phenyl)-3-(3-(trifluoromethyl)phenyl)urea] showed an EC50 [1] of 1.32 µM, an EC50 [2] of 0.739 µM and an EC50 [3] of 0.427 µM. For the same compound, the EC50 [4] was 2.45 µM, the EC50 [5] was 0.574 µM and the MYCN protein level [6] was “decreased levels of both MYCN and p-Histone H3 proteins”. The EC50 [7] was 1.46 µM, the EC50 [8] was 0.916 µM and the “phosphorylation of Histone H3 at S10, dose response” value [9] was “behaves similarly to MLN8237 with regard to Histone H3 phosphorylation”. For the same compound, the EC50 [10] was 1.18 µM, the EC50 [11] was 0.746 µM and the EC50 [12] was 6 µM. The EC50 [13] was 5.34 µM, the EC50 [14] was 0.915 µM and the MYCN-MAX binding [15] was “did not affect MYCN-MAX binding”. It also gave an EC50 [16] of 0.411 µM, an EC50 [17] of 0.103 µM and an EC50 [18] of 2.99 µM. The EC50 [19] was 2.51 µM, the overall survival ([20]; 25 mg/kg b.i.w. vs vehicle) was “statistical significant increase in overall survival” and the “tumor growth (tumor size over time)” value ([20]; 25 mg/kg b.i.w., intraperitoneal injection) was “inhibits growth”. The EC50 [21] was 0.545 µM, the EC50 [22] was 0.158 µM and the EC50 [23] was 1.02 µM. For the same compound, the EC50 [24] was 0.323 µM, the EC50 [25] was 0.662 µM and the EC50 [26] was 1.51 µM. The EC50 [27] was 0.83 µM and the EC50 [28] was 1.29 µM.

From US12551482B2, “Aurora kinase inhibitors” (The Regents of the University of California, priority 2013, dated 2026)
